Measurements as given in US6946469B2, “Cyanamide, alkoxyamino, and urea derivatives of 4,4-disubstituted-3,4-dihydro-2(1H)-quinazolinones as HIV reverse transcriptase inhibitors” (Bristol-Myers Squibb Pharma Company, priority 2001, dated 2005).
≈ marks a conversion by molar mass, not a printed value.

Tested on: HIV-1 (RF)
Assay: HIV RNA assay: microplate based compound evaluation in HIV-1 infected MT-2 cells
Type: cell-based
Conditions: Human immunodeficiency virus 1, MT2, 72 h; HIV-1 (RF) infected MT-2 cells, 3 days of culture; virus dilution selected to give this value (inoculum standardisation); read-out: IC90 value (concentration of compound required to reduce the HIV RNA level by 90%)
Protocol: MT-2 and MT-4 cells were maintained in RPMI 1640 supplemented with 5% fetal calf serum (FCS) for MT-2 cells or 10% FCS for MT-4 cells, 2 mM L-glutamine and 50 μg/mL gentamycin, all from Gibco. HIV-1 RF was propagated in MT-4 cells in the same medium. Virus stocks were prepared approximately 10 days after acute infection of MT-4 cells and stored as aliquots at −70° C. Infectious titers of HIV-1 (RF) stocks were 1-3×10^7 PFU (plaque forming units)/mL as measured by plaque assay on MT-2 cells (see below). Each aliquot of virus stock used for infection was thawed only once.
For evaluation of antiviral efficacy, cells to be infected were subcultured one day prior to infection. […]
Cell lysates or purified RNA in 3 M or 5 M GED were mixed with 5 M GED and capture probe to a final guanidinium isothiocyanate concentration of 3 M and a final biotin oligonucleotide concentration of 30 nM. […] Immobilized alkaline phosphatase activity was detected by addition of 100 μL of 0.2 mM 4-methylumbelliferyl phosphate (MUBP, JBL Scientific) in buffer δ(2.5 M diethanolamine pH 8.9 (JBL Scientific), 10 mM MgCl2, 5 mM zinc acetate dihydrate and 5 mM N-hydroxyethyl-ethylene-diamine-triacetic acid). […] Fluorescence at […] was measured using a microplate fluorometer (Dynateck) exciting at […]. […]

Work on Nc1ccn([C@H]2CC[C@@H](CO)O2)c(=O)n1 [ddC, 2′,3′-dideoxycytidine] yielded an IC90 of 0.2 µg/mL (≈ 0.947 µM).
